# Assay results: ChEMBL document CHEMBL1201862, “PubChem BioAssay data set” (2004)
# The source made the active and inactive calls.
# Tests used:
# [1] = system: INS1; assay: beta cell apoptosis inhibitors, cytokine rescue, dose response, luminescence, retest (AID 449756); type: functional, cell-based; details: Rattus norvegicus;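 note: cell death triggered by IL-1 beta plus TNF-alpha plus IFN-gamma mixture; protective hits raise ATP signal compared with cytokine alone wells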
# [2] = target: T1, COUP transcription factor 2 (Homo sapiens, UniProt P24468); assay: Luminescence-based cell-based high throughput dose response assay to identify inhibitors of COUP-TFII (NR2F2).; type: functional;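 note: HEK293 cells transiently cotransfected with COUP-TFII expression vector and reporter; luciferase reporter luminescence driven by COUP-TFII from the pX2-168 reporter plasmid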
# T1 sequence (P24468 whole entry): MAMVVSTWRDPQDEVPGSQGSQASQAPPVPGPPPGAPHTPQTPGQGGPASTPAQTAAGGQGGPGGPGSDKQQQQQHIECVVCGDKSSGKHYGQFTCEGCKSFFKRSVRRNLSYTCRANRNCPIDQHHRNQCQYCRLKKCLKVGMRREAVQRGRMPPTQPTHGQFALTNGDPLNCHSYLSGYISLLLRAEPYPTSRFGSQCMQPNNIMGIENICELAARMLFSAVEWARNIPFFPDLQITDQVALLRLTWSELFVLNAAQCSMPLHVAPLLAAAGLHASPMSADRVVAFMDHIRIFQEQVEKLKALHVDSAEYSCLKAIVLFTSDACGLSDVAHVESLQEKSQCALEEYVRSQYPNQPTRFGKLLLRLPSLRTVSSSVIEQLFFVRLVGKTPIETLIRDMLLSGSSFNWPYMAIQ
# [3] = cytotoxicity in HEK-293T cells, dose response, cytotoxicity control for TCR NF-kB inhibitor project, luminescence, T-cell screen hits (AID 489026); type: functional, cell-based;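 note: cells exposed to compound about 14 hours before the viability readout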
# [4] = target: T2, Oxysterols receptor LXR-beta (Homo sapiens, UniProt P55055); type: functional, cell-based;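 note: Cell-based luminescence dose-response assay of agonist activity at LXR, run as a confirmatory counterscreen to a daf-12 agonist screen; agonist potency from rising luciferase signal of a Gal4-LXR reporter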
# T2 sequence (P55055 whole entry): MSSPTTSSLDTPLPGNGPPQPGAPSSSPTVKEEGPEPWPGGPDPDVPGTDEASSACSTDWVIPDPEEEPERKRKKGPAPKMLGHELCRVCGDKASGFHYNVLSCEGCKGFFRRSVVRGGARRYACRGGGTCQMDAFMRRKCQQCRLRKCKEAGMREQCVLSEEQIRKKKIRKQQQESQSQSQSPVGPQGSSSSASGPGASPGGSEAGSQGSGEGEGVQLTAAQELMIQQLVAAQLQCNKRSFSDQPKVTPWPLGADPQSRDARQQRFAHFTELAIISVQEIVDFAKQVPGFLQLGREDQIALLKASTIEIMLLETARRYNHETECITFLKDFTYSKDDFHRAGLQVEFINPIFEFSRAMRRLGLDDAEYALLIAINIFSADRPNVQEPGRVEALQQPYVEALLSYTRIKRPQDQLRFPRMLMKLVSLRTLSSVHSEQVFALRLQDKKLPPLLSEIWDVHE
# [5] = Luminescence-based cell-based high throughput dose response assay to identify activators of the DAF-12 from the parasite S. stercoralis (ssDAF-12).; type: functional
# [6] = cells
# [7] = StAR promoter reporter inhibition counter-screen, dose response, counter-screen for LRH-1 inverse agonist project, cell-based, luminescence, luciferase reporter (AID 651969); type: functional
# [8] = target: Nuclear receptor subfamily 5 group A member 2 (Homo sapiens, UniProt O00482); type: functional, cell-based;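 note: HEK293T cells transfected with LRH-1 and a StAR promoter luciferase reporter; potency for inhibitors that lower LRH-1 driven reporter light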
# Nuclear receptor subfamily 5 group A member 2, sequence (O00482 whole entry): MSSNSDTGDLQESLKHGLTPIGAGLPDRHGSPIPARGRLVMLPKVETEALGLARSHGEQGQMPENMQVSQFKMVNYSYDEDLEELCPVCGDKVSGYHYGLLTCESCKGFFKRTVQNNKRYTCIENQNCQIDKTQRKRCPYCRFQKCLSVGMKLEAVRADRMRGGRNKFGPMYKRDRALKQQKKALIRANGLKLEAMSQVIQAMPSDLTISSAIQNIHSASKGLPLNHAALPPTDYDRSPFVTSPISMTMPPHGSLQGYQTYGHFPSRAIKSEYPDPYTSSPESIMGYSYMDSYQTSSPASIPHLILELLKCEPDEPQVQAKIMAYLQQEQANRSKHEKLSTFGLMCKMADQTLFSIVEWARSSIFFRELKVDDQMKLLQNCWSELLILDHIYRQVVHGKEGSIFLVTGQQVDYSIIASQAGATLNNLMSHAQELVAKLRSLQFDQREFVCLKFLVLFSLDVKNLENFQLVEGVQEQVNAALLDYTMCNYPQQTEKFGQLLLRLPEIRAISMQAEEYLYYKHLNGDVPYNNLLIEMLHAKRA
# [9] = target: Steroidogenic factor 1 (Homo sapiens, UniProt Q13285); assay: Counterscreen for inverse agonists of the liver receptor homolog-1 (LRH-1; NR5A2): Luminescence-based cell-based high throughput dose response assay to identify inverse agonists of the Steroidogenic Factor 1 Nuclear Receptor (SF1; NR5A1).; type: functional
# Steroidogenic factor 1, sequence (Q13285 whole entry, the tested form may be a part): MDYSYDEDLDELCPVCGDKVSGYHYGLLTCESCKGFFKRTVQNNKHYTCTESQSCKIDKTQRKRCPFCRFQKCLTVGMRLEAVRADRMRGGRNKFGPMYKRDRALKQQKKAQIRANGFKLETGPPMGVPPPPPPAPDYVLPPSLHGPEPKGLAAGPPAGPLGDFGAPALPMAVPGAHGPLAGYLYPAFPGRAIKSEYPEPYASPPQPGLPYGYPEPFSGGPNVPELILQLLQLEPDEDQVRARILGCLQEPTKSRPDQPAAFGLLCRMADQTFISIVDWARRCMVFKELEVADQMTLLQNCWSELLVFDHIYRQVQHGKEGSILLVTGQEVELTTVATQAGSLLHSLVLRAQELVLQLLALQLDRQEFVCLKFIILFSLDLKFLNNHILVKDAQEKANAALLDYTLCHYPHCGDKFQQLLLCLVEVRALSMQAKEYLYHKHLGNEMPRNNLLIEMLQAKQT
# [10] = target: T2, Oxysterols receptor LXR-beta; assay: LXR agonists, Gal4 luciferase reporter, dose response, counter-screen for ssDAF-12 agonist project, cell-based, luminescence, HEK293, S. stercoralis campaign (AID 720737); type: functional; details: read-out: IC50 (the source's name)
# [11] = target: Cytochrome P450 2C9 (Homo sapiens, UniProt P11712)
# Cytochrome P450 2C9, sequence (P11712 whole entry): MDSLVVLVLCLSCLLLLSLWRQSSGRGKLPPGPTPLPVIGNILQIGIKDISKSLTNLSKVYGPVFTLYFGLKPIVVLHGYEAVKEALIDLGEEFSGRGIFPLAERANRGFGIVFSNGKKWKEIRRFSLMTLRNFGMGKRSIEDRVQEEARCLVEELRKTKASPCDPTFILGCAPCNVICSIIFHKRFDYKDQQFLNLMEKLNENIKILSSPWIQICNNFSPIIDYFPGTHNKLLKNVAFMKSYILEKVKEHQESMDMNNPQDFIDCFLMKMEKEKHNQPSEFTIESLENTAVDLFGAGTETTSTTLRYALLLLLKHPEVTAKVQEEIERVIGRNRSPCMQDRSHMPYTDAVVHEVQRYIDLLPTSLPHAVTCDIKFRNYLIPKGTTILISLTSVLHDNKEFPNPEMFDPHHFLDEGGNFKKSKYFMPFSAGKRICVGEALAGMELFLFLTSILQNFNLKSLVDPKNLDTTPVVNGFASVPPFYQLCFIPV
# [12] = growth suppression of PTEN-null colon cells, dose response, cell-based, HCT116 PTEN knockout (AID 1047); type: functional;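 note: HCT116 colon tumor cells with PTEN knocked out; cells exposed to compound for 60 hours before readout; potency for loss of cell viability measured by luminescence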
# [13] = target: Cytochrome P450 3A4 (Homo sapiens, UniProt P08684);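 note: CYP3A4 tested as one member of a cytochrome P450 panel screen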
# Cytochrome P450 3A4, sequence (P08684 whole entry): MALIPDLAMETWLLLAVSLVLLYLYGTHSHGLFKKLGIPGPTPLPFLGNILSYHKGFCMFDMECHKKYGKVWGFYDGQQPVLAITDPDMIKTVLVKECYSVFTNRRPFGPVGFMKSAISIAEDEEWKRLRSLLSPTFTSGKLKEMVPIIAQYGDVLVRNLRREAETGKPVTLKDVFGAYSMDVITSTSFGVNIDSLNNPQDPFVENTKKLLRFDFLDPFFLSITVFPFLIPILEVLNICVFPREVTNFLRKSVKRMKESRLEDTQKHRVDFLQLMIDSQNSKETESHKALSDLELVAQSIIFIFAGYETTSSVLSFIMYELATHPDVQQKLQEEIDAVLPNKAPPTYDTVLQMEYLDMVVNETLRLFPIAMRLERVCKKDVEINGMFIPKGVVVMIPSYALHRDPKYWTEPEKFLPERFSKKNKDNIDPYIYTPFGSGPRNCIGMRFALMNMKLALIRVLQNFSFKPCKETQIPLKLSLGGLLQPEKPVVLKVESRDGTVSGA
# [14] = NIH-3T3 fibroblast cytotoxicity, dose response, cytotoxicity control, cell-based, fluorescence, Alamar Blue, secondary assay (AID 2327); type: functional;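 note: NIH-3T3 mouse fibroblasts cultured with fluconazole at 8 µg/mL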
# [15] = HeLa cell cytotoxicity, dose response, cytotoxicity control for MgcRacGAP inhibitor project (AID 624300); type: functional
# [16] = C. albicans growth with fluconazole, confirmation, fluorescence, retest (AID 2467); type: functional, cell-based
# [17] = target: T3, Long-chain-fatty-acid--AMP ligase FadD28 (Mycobacterium tuberculosis, UniProt P9WQ59); assay: Fluorescence polarization aasay to screen for inhibitors that compete for the binding of FadD28 to a bisubstrate Measured in Biochemical System Using Plate Reader - 2147-01_Inhibitor_Dose_CherryPick_Activity.; type: functional, Mycobacterium tuberculosis H37Rv
# T3 sequence (P9WQ59 whole entry): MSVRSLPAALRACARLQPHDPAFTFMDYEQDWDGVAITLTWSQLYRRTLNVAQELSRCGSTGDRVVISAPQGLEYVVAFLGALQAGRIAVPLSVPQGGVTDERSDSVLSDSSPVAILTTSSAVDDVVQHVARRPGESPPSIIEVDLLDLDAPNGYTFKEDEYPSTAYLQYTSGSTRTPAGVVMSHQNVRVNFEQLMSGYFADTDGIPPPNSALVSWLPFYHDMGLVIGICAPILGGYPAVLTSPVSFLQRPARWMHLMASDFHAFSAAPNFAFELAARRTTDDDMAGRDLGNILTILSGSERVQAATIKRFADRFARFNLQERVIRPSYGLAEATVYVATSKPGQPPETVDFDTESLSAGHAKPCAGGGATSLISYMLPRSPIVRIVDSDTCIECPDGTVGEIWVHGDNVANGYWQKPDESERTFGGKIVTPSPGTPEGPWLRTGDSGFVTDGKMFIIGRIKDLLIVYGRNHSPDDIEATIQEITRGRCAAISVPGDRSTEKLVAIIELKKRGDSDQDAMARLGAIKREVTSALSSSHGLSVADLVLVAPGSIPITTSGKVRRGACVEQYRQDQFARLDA
# [18] = growth suppression of beta-catenin-knockout colon cells, dose response, cell-based, HCT116, human colon tumor (AID 1045); type: functional;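 note: HCT116 colon tumor cells with beta catenin knocked out; cells exposed to compound for 60 hours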
# [19] = target: T4, Rac GTPase-activating protein 1 (Homo sapiens, UniProt Q9H0H5); assay: MgcRacGAP GTPase-activating activity inhibitors, confirmation, biochemical, ADP Hunter fluorescence, primary and confirmatory (AID 624330); type: functional
# T4 sequence (Q9H0H5 whole entry): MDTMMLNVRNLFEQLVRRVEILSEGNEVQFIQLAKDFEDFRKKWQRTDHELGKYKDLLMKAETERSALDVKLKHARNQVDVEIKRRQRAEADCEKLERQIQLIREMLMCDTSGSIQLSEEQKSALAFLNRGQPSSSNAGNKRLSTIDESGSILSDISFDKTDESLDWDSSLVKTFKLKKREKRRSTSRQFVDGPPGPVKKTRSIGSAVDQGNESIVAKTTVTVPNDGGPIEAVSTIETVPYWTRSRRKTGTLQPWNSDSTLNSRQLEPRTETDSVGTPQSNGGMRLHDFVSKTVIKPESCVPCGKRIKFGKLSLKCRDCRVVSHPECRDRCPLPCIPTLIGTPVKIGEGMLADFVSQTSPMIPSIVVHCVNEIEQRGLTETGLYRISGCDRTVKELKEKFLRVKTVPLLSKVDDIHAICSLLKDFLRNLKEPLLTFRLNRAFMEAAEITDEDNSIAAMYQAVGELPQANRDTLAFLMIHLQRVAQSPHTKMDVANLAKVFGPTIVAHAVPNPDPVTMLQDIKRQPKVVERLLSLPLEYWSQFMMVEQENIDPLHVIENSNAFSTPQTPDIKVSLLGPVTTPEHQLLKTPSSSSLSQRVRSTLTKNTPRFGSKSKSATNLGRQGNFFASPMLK
# [20] = Counterscreen for inhibitors of Trypanosoma brucei methionyl tRNA synthetase (MetRS): Luminescence-based cell-based high throughput dose response assay to identify compounds that are cytotoxic to Jurkat human T lymphocyte cells.; type: functional
# [21] = HEK293T cell cytotoxicity, dose response, cytotoxicity control for HIV Vif inhibitor project, cherry-picks (AID 652208); type: functional, cell-based
# [22] = target: Paired box protein Pax-8 (Homo sapiens, UniProt Q06710); assay: inhibitors of PAX8-driven TPO luciferase reporter, dose response, RMG-I cells, cherry-pick (AID 687027); type: functional, cell-based;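 note: luciferase reporter driven by Pax8 target thyroperoxidase promoter measured by SteadyGlo luminescence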
# Paired box protein Pax-8, sequence (Q06710 whole entry): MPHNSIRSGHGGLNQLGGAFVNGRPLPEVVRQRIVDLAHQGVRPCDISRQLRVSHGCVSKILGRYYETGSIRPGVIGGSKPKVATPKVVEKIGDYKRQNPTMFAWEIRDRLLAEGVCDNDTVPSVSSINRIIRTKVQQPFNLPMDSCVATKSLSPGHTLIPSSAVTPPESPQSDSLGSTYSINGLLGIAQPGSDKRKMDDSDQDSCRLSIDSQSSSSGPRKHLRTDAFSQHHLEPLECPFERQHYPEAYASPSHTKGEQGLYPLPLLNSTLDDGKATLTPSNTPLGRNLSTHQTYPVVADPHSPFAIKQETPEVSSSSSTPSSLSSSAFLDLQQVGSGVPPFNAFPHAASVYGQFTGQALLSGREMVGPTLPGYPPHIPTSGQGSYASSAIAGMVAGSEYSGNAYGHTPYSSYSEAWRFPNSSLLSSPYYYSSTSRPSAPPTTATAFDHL
# [23] = cytotoxicity in OVCAR8 ovarian cancer cells, dose response, PAX8 project, cell-based, plate reader, dry powder samples (AID 743197); type: functional; details: OVCAR-8
# [24] = A2780 ovarian cancer cell cytotoxicity, dose response, cytotoxicity control, plate reader, dry powder samples (AID 743046); type: functional, cell-based
# [25] = LGR2 antagonists, dose response, cell-based, HEK293, CRE-luciferase reporter, cherry pick, set 2 (AID 743343); type: functional;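 note: transfected cells were stimulated with diluted bursicon conditioned medium after compound addition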
# [26] = MC4R antagonists, dose response, counter-screen for LGR2 antagonist project, cell-based, plate reader, cherry pick (AID 743444); type: functional;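 note: transfected HEK 293 cells stimulated with alpha-MSH peptide; potency of inhibitors of the alpha-MSH evoked signal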
# [27] = A549 cell cytotoxicity, dose response, cytotoxicity control, plate reader, cherry-pick, antagonist series (AID 743412); type: functional, cell-based
# [28] = HEK293 cell cytotoxicity, dose response, cytotoxicity control, plate reader, cherry-picked samples (AID 743446); type: functional, cell-based
# [29] = HepG2 cell cytotoxicity, dose response, cytotoxicity control, plate reader, cherry-pick, antagonist series (AID 743416); type: functional, cell-based
# [30] = HepG2 cell cytotoxicity, dose response, cytotoxicity control for Shn3 inhibitor project, CellTiter-Glo, cherry-picked (AID 624134); type: functional, cell-based
# [31] = Shn3 3'UTR reporter inhibitors, dose response, cell-based, Clone20 osteoblasts, firefly luciferase, cherry-picked (AID 624132); type: functional;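 note: firefly luciferase luminescence from reporter carrying the Shn3 3'UTR in osteoblasts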
# [32] = control 3'UTR Renilla luciferase suppression, dose response, counter-screen for Shn3 inhibitor project, cell-based, Clone20-Shn3RL, cherry-picked (AID 624133); type: functional
compound,measurement,setting,value
Cc1nn(C)c(C)c1CN(Cc1nc(CCC(C)C)no1)C(C)C,AC50,[1],2.24 µM (active)
same,IC50,[2],4.68 µM (active)
same,IC50,[3],> 80 µM (inactive)
Cc1ccc2[nH]c(-c3sc4nc(C)ccc4c3N)nc2c1,EC50,[4],> 67.5 µM (inactive)
same,IC50,[5],> 67.6 µM (inactive)
same,EC50,[6],> 67.5 µM (inactive)
O=C(Nc1ccccc1C(=O)Nc1nccs1)c1ccccc1,IC50,[7],26.4 µM (inactive)
same,IC50,[8],9.83 µM (active)
same,IC50,[9],9.51 µM (active)
Cc1cc(-c2nc3ccccc3s2)ccc1N,EC50,[4],> 67.6 µM (inactive)
same,IC50,[5],> 67.6 µM (inactive)
same,EC50,[10],> 67.6 µM (inactive)
same,EC50,[6],> 67.6 µM (inactive)
Cn1c(N/N=C/c2c[nH]c3ccccc23)nc2ccccc21,AC50,[11],28.2 µM (inconclusive)
same,EC50,[12],2.96 µM (active)
same,AC50,[13],20 µM (inconclusive)
same,EC50,[14],> 150 µM (inactive)
same,CC50,[15],100 µM (active)
same,EC50,[16],> 38 µM (not active)
same,AC50,[17],52.1 µM (active)
same,EC50,[18],2.81 µM (active)
same,IC50,[19],44.4 µM (active)
O=C(OCC(=O)c1c[nH]c2ccccc12)c1ccc(OC(F)F)cc1,IC50,[20],83.3 µM (inactive)
COc1ccc(N2/C(=C/C(C)=O)NC(=O)c3c(C)cc(C)nc32)cc1,IC50,[7],35.9 µM (inactive)
same,IC50,[8],8.47 µM (active)
same,IC50,[9],5.42 µM (active)
COc1ccc(C=C2CS(=O)(=O)CC(=Cc3ccc(OC)cc3)C2=O)cc1,AC50,[21],4.33 µM (active)
Cc1cc([N+](=O)[O-])ccc1NC(=O)CSc1nnc(C)n1C,IC50,[7],35.8 µM (inactive)
same,IC50,[8],11.9 µM (inactive)
same,IC50,[9],11.9 µM (inactive)
O=C(C[C@@H]1CC[C@H]2[C@@H](COC[C@H](O)CN2C(=O)Nc2ccc(Cl)c(Cl)c2)O1)NCc1ccc(Cl)cc1,AC50,[22],13.5 µM (active)
same,AC50,[23],> 70 µM (inactive)
same,AC50,[24],11.9 µM (active)
COc1cc(/C=N/Nc2nn3cnnc3c3ccccc23)ccc1O,CC50,[15],100 µM (active)
same,IC50,[19],64.2 µM (active)
CCOC(=O)N1CCN(c2c(NCc3ccc(Cl)cc3)c(=O)c2=O)CC1,AC50,[21],> 52 µM (inactive)
C[C@H](CO)N1C[C@H](C)[C@H](CN(C)Cc2ccc(C(F)(F)F)cc2)Oc2ccc(NC(=O)Nc3ccccc3)cc2C1=O,AC50,[25],27.4 µM (active)
same,AC50,[26],20.2 µM (active)
same,AC50,[27],7.64 µM (active)
same,AC50,[28],> 47 µM (inactive)
same,AC50,[29],> 47 µM (inactive)
CC(C)c1ccc(NC(=O)Nc2nc(C(N)c3ccccc3)cs2)cc1 (stereo not given),AC50,[30],13.5 µM (active)
same,AC50,[25],25.5 µM (active)
same,AC50,[26],29 µM (active)
same,AC50,[31],2.48 µM (active)
same,AC50,[27],7.84 µM (active)
same,AC50,[28],16 µM (active)
same,AC50,[32],15.4 µM (active)
same,AC50,[29],8.5 µM (active)
Cn1cccc1C(=O)OCc1csc(-c2ccccc2)n1,EC50,[4],> 67.5 µM (inactive)
same,IC50,[5],> 67.5 µM (inactive)
same,EC50,[10],> 67.5 µM (inactive)
same,EC50,[6],> 67.5 µM (inactive)
O=C(CNC(=O)c1cccs1)OCC(=O)c1ccc(Cl)cc1,IC50,[5],> 67.5 µM (inactive)
same,EC50,[10],> 67.5 µM (inactive)
